Reference: PMC7916972, “Therapeutic Targeting of Fumaryl Acetoacetate Hydrolase in Hereditary Tyrosinemia Type I” (International Journal of Molecular Sciences, 2021)
pKd: −log10 of the molar value.

How the values were obtained:
[1] = target: T1, Fumarylacetoacetate hydrolase (WT FAH) (Homo sapiens, UniProt P16930); test: STD NMR titration; methyl-TROSY M140 splitting; assay type: binding
T1 sequence (P16930 2-419): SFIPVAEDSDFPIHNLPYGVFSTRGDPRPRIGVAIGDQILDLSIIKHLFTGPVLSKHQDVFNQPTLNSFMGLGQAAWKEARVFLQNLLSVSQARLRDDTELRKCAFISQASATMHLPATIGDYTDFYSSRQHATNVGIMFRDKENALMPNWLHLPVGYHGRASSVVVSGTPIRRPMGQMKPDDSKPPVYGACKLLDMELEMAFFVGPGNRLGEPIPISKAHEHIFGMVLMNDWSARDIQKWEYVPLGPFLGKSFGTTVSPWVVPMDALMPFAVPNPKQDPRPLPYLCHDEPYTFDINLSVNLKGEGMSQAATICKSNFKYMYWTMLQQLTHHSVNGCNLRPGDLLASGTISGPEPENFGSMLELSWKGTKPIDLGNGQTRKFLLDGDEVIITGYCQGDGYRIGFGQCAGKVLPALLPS

[2] = target: T1, Fumarylacetoacetate hydrolase (WT FAH); test: STD NMR titration; methyl-TROSY M140 shift; assay type: binding

pKd [1]	pKd [2]	Compound
3.63	–	C#Cc1ccncc1 [G1.30.B10]
–	4.70	C(#Cc1ccncc1)c1ccncc1 [G2.HT1.1]
–	4.68	Cc1ccnc(NC(=O)c2ccc(C)c(N)c2)c1 [G2.HT1.4]
